# Assay results published in PubChem BioAssay AID1963420 (Molecular Pharmacology Branch, DTP, NCI, 2024).
# Tested on: 494315-158-R-J1-PDC complex spheroid growth, percent test/control
# Assay: Anticancer human tumor 494315-158-R-J1-PDC patient-derived soft tissue sarcoma cell line growth inhibition [Asc]
# Conditions: for IC50: curve of first compound; for viability, T/C: stronger effect = lower value
# Outline: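 Spheroid model: tumor line + HUVEC + hMSC. Single agents and combinations; top conc. at/near clinical Cmax (10 microM if undetermined), half-log dilutions. DMSO stocks at 800-fold test concentration.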
# [1] = second compound 0.1 µM, first compound 0.0316 µM
# [2] = second compound 0.1 µM, first compound 0.1 µM
# [3] = second compound 0.1 µM, first compound 0.316 µM
# [4] = second compound 0.1 µM, first compound 1 µM
# [5] = second compound 0.316 µM, first compound 0.0316 µM
# [6] = second compound 0.316 µM, first compound 0.1 µM
# [7] = second compound 0.316 µM, first compound 0.316 µM
# [8] = second compound 0.316 µM, first compound 1 µM
# [9] = second compound 1 µM, first compound 0.0316 µM
# [10] = second compound 1 µM, first compound 0.1 µM
# [11] = second compound 1 µM, first compound 0.316 µM
# [12] = second compound 1 µM, first compound 1 µM
# 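Further: compound exposure lasted seven days after spheroids formed for three days.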
structure (smiles),measurement,setting,value
O=C(c1cc(Cc2n[nH]c(=O)c3ccccc23)ccc1F)N1CCN(C(=O)C2CC2)CC1 + CCN1C(C(=O)NC23CCC(C(=O)O)(CC2)CC3)C(c2cccc(Cl)c2F)C2(C(=O)Nc3cc(Cl)ccc32)C12CCCCC2,IC50,second compound 0.03 µM,> 10 µM
same,IC50,second compound 0.0949 µM,> 10 µM
same,IC50,second compound 0.3 µM,> 10 µM
same,IC50,second compound 0.949 µM,> 10 µM
same,IC50,second compound 3 µM,> 10 µM
same,"viability, T/C","second compound 0.03 µM, first compound 0.0316 µM",97.3%
same,"viability, T/C","second compound 0.03 µM, first compound 0.1 µM",109%
same,"viability, T/C","second compound 0.03 µM, first compound 0.316 µM",94%
same,"viability, T/C","second compound 0.03 µM, first compound 1 µM",94.6%
same,"viability, T/C","second compound 0.03 µM, first compound 3.16 µM",80.4%
same,"viability, T/C","second compound 0.03 µM, first compound 10 µM",51.2%
same,"viability, T/C","second compound 0.0949 µM, first compound 0.0316 µM",107%
same,"viability, T/C","second compound 0.0949 µM, first compound 0.1 µM",107%
same,"viability, T/C","second compound 0.0949 µM, first compound 0.316 µM",96.8%
same,"viability, T/C","second compound 0.0949 µM, first compound 1 µM",93.8%
same,"viability, T/C","second compound 0.0949 µM, first compound 3.16 µM",74.3%
same,"viability, T/C","second compound 0.0949 µM, first compound 10 µM",50.4%
same,"viability, T/C","second compound 0.3 µM, first compound 0.0316 µM",97.6%
same,"viability, T/C","second compound 0.3 µM, first compound 0.1 µM",103%
same,"viability, T/C","second compound 0.3 µM, first compound 0.316 µM",95.2%
same,"viability, T/C","second compound 0.3 µM, first compound 1 µM",79.1%
same,"viability, T/C","second compound 0.3 µM, first compound 3.16 µM",74.5%
same,"viability, T/C","second compound 0.3 µM, first compound 10 µM",53%
same,"viability, T/C","second compound 0.949 µM, first compound 0.0316 µM",109%
same,"viability, T/C","second compound 0.949 µM, first compound 0.1 µM",90.2%
same,"viability, T/C","second compound 0.949 µM, first compound 0.316 µM",92.5%
same,"viability, T/C","second compound 0.949 µM, first compound 1 µM",95.9%
same,"viability, T/C","second compound 0.949 µM, first compound 3.16 µM",73.9%
same,"viability, T/C","second compound 0.949 µM, first compound 10 µM",52%
same,"viability, T/C","second compound 3 µM, first compound 0.0316 µM",90.3%
same,"viability, T/C","second compound 3 µM, first compound 0.1 µM",83.9%
same,"viability, T/C","second compound 3 µM, first compound 0.316 µM",85%
same,"viability, T/C","second compound 3 µM, first compound 1 µM",91.9%
same,"viability, T/C","second compound 3 µM, first compound 3.16 µM",81.9%
same,"viability, T/C","second compound 3 µM, first compound 10 µM",51%
C#Cc1c(F)ccc2cc(O)cc(-c3ncc4c(N5CC6CCC(C5)N6)nc(OCC56CCCN5CC(F)C6)nc4c3F)c12 (stereo not given) + CNC(C)C(=O)NC1CN(S(=O)(=O)c2cccc(S(=O)(=O)N3CCC4CCC(C(=O)NC(c5ccccc5)c5ccccc5)N4C(=O)C(NC(=O)C(C)NC)C3)c2)CCC2CCC(C(=O)NC(c3ccccc3)c3ccccc3)N2C1=O,IC50,second compound 0.01 µM,> 10 µM
same,IC50,second compound 0.0316 µM,> 10 µM
same,IC50,second compound 0.1 µM,> 10 µM
same,IC50,second compound 0.316 µM,> 10 µM
same,IC50,second compound 1 µM,< 0.0316 µM
same,"viability, T/C","second compound 0.01 µM, first compound 0.0316 µM",75.8%
same,"viability, T/C","second compound 0.01 µM, first compound 0.1 µM",77.5%
same,"viability, T/C","second compound 0.01 µM, first compound 0.316 µM",78.4%
same,"viability, T/C","second compound 0.01 µM, first compound 1 µM",89.3%
same,"viability, T/C","second compound 0.01 µM, first compound 3.16 µM",86.8%
same,"viability, T/C","second compound 0.01 µM, first compound 10 µM",82%
same,"viability, T/C","second compound 0.0316 µM, first compound 0.0316 µM",66.7%
same,"viability, T/C","second compound 0.0316 µM, first compound 0.1 µM",59.8%
same,"viability, T/C","second compound 0.0316 µM, first compound 0.316 µM",71.6%
same,"viability, T/C","second compound 0.0316 µM, first compound 1 µM",71.6%
same,"viability, T/C","second compound 0.0316 µM, first compound 3.16 µM",76.9%
same,"viability, T/C","second compound 0.0316 µM, first compound 10 µM",78%
same,"viability, T/C",[1],53.5%
same,"viability, T/C",[2],65.6%
same,"viability, T/C",[3],65.3%
same,"viability, T/C",[4],65.4%
same,"viability, T/C","second compound 0.1 µM, first compound 3.16 µM",72.4%
same,"viability, T/C","second compound 0.1 µM, first compound 10 µM",70.7%
same,"viability, T/C",[5],47.8%
same,"viability, T/C",[6],48.1%
same,"viability, T/C",[7],52.7%
same,"viability, T/C",[8],51.9%
same,"viability, T/C","second compound 0.316 µM, first compound 3.16 µM",51.4%
same,"viability, T/C","second compound 0.316 µM, first compound 10 µM",69.5%
same,"viability, T/C",[9],37.6%
same,"viability, T/C",[10],43.8%
same,"viability, T/C",[11],39.4%
same,"viability, T/C",[12],45.8%
same,"viability, T/C","second compound 1 µM, first compound 3.16 µM",55.5%
same,"viability, T/C","second compound 1 µM, first compound 10 µM",55.6%
CNC(C)C(=O)NC1CN(S(=O)(=O)c2cccc(S(=O)(=O)N3CCC4CCC(C(=O)NC(c5ccccc5)c5ccccc5)N4C(=O)C(NC(=O)C(C)NC)C3)c2)CCC2CCC(C(=O)NC(c3ccccc3)c3ccccc3)N2C1=O (stereo not given) + Cc1c(S(C)(=O)=O)c(-c2cc(F)cc(N3CCN(c4ccc(NS(=O)(=O)c5ccc(NC(CCN6CCC(C(=O)OCCCP(=O)(O)O)CC6)CSc6ccccc6)c(S(=O)(=O)C(F)(F)F)c5)cc4)CC3)c2)c(-c2ccc(Cl)cc2)n1C(C)C,IC50,second compound 0.1 µM,0.0188 µM
same,IC50,second compound 0.316 µM,< 0.00316 µM
same,IC50,second compound 1 µM,0.00957 µM
same,IC50,second compound 3.16 µM,< 0.00316 µM
same,IC50,second compound 10 µM,0.0222 µM
same,"viability, T/C","second compound 0.1 µM, first compound 0.00316 µM",66.2%
same,"viability, T/C","second compound 0.1 µM, first compound 0.01 µM",57.6%
same,"viability, T/C",[1],42.9%
same,"viability, T/C",[2],36.8%
same,"viability, T/C",[3],29.5%
same,"viability, T/C",[4],26.9%
same,"viability, T/C","second compound 0.316 µM, first compound 0.00316 µM",46.4%
same,"viability, T/C","second compound 0.316 µM, first compound 0.01 µM",47.5%
same,"viability, T/C",[5],39.1%
same,"viability, T/C",[6],39.3%
same,"viability, T/C",[7],26%
same,"viability, T/C",[8],30%
same,"viability, T/C","second compound 1 µM, first compound 0.00316 µM",68.2%
same,"viability, T/C","second compound 1 µM, first compound 0.01 µM",43.2%
same,"viability, T/C",[9],42.8%
same,"viability, T/C",[10],34.7%
same,"viability, T/C",[11],26.4%
same,"viability, T/C",[12],23.9%
same,"viability, T/C","second compound 3.16 µM, first compound 0.00316 µM",49%
same,"viability, T/C","second compound 3.16 µM, first compound 0.01 µM",39.7%
same,"viability, T/C","second compound 3.16 µM, first compound 0.0316 µM",32.6%
same,"viability, T/C","second compound 3.16 µM, first compound 0.1 µM",21.8%
same,"viability, T/C","second compound 3.16 µM, first compound 0.316 µM",36.7%
same,"viability, T/C","second compound 3.16 µM, first compound 1 µM",19.8%
same,"viability, T/C","second compound 10 µM, first compound 0.00316 µM",60.3%
same,"viability, T/C","second compound 10 µM, first compound 0.01 µM",60.5%
same,"viability, T/C","second compound 10 µM, first compound 0.0316 µM",44.5%
same,"viability, T/C","second compound 10 µM, first compound 0.1 µM",36.4%
same,"viability, T/C","second compound 10 µM, first compound 0.316 µM",29.3%
same,"viability, T/C","second compound 10 µM, first compound 1 µM",29.4%
